pIC50: −log10 of the molar value. Blank lines part the entries; values can stand above or below the compound they belong to.
Biological target: T1, human PDHK2 (hPDHK2) (Homo sapiens, UniProt Q15119)
T1 construct: made in house; host or cells: Escherichia coli BL21(DE3), pET-17b vector
Test: Inhibitory action of PDHK2 activity (residual PDH activity, NADH absorbance at 340 nm)
Format: biochemical
Details: PDH/hPDHK2 complex, PDHK reaction 45 min at room temperature
Method: In the case of human PDHK2 (hPDHK2, NCBI Reference Database Accession number NM_002611.4), modified hPDHK2 cDNA wherein FLAG-Tag sequence was added to the N terminus of hPDHK2 cDNA clone (pReceiver-M01/PDK2-GeneCopoeia) as the base was prepared by polymerase chain reaction (PCR) and ligated to the NdeI/EcoRI site of pET-17b vector (Merck KGaA, Catalog Number 69663-3). The recombinant construct was transformed into Escherichia coli DH5α. The recombinant clones were identified, and plasmid DNA was isolated and subjected to the DNA sequence analysis. One clone which had the expected nucleic acid sequence was selected for expression work.
For expression of hPDHK2 activity, Escherichia coli strain BL21(DE3) cells (Merck KGaA, Catalog Number 69450-4) were transformed with the pET17b vector containing modified hPDHK2 cDNA. The Escherichia coli were grown to an optical density 0.6 ([…]) at 30° C. Protein expression was induced by the addition of 500 μmol/L isopropyl-β-thiogalactopyranoside. The Escherichia coli were cultured at 20° C. for 17-18 hr and harvested by centrifugation. The harvested Escherichia coli was resuspended in a suspension buffer (20 mmol/L HEPES-NaOH, 500 mmol/L sodium chloride, 1% ethylene glycol, 0.1% Pluronic (registered trademark) F-68 (pH 8.0), cOmplete, EDTA-free (Roche) (pH 8.0)), and disrupted by a microfluidizer M-110H (MIZUHO INDUSTRIAL CO., LTD.). The precipitate was removed by centrifugation and the supernatant was added to DDDDK-tagged Protein PURIFICATION GEL (MEDICAL & BIOLOGICAL LABORATORIES CO., LTD., Code No. 3329). DDDDK-tagged Protein PURIFICATION GEL was washed with a washing buffer (20 mmol/L HEPES-NaOH, 500 mmol/L sodium chloride, 1% ethylene glycol, 0.1% Pluronic F-68 (pH 8.0)) and the bound protein was eluted with elution buffer 1 (20 mmol/L HEPES-NaOH, 100 μg/mL peptide (amino acid sequence DYKDDDDK) (SEQ ID NO: 1), 500 mmol/L sodium chloride, 1% ethylene glycol, 0.1% Pluronic F-68 (pH 8.0)). The eluted fractions containing FLAG-Tagged protein were pooled, concentrated by an ultrafiltration method, added to a gel filtration column (HiLoad 26/60 Superdex 200 (GE Healthcare Life Sciences, Code No. 17-1070-01)), and eluted with elution buffer 2 (20 mmol/L HEPES-NaOH, 150 mmol/L sodium chloride, 0.5 mmol/L ethylenediaminetetraacetic acid (EDTA), 1% ethylene glycol, 0.1% Pluronic F-68 (pH 8.0)). The eluted fractions were pooled and preserved at −80° C.
PDH (porcine heart PDH complex, Sigma P7032) and 0.5 μg/mL hPDHK2 were mixed in an assay buffer (50 mmol/L 3-morpholinopropanesulfonic acid (pH 7.0), 20 mmol/L dipotassium hydrogen phosphate, 60 mmol/L potassium chloride, 2 mmol/L magnesium chloride, 0.4 mmol/L EDTA, 0.2% poloxamer, 2 mmol/L dithiothreitol) so that the final concentration of PDH was 0.025 U/mL, and the mixture was incubated at 4° C. overnight to obtain a PDH/hPDHK2 complex solution.
PDH was mixed with the assay buffer so that the final concentration was 0.025 U/mL, and the mixture was incubated at 4° C. overnight to prepare a PDH solution.
The test compounds were diluted with DMSO. To measure an inhibitory action of the test compound on the PDHK activity in the PDH/hPDHK2 complex solution, PDH/hPDHK2 complex solution (20 μL), test compound (1.5 μL) and 1.06 μmol/L ATP (diluted with assay buffer) (8.5 μL) were added to a 384 well microplate (Greiner Bio-One 781801) and PDHK reaction was performed at room temperature for 45 min (test compound well). DMSO (1.5 μL) was added to control wells instead of test compound. In addition, DMSO (1.5 μL) was added to blank wells instead of the test compound, and PDH solution was added instead of the PDH/hPDHK2 complex solution. To measure an inhibitory action of the test compound on the PDHK activity inherent in the PDH solution, a test compound was added and the PDH solution instead of the PDH/hPDHK2 complex solution was added to a blank+test compound well. […]

Compound: CC(=O)N1CC(COc2cc3n(n2)C[C@H](C)n2c-3cnc2[C@@](C)(O)C(F)(F)F)C1 [Example 64]
- pIC50: 7.72

Compound: C[C@H]1Cn2nc(OCCN3CCCS3(=O)=O)cc2-c2cnc([C@@](C)(O)C(F)(F)F)n21 [Example 76]
- pIC50: 7.89

Compound: Cc1cnn2c1-c1cnc([C@@](C)(O)C(F)(F)F)n1[C@@H](C)C2 [Example 31]
- pIC50: 7.09

Compound: C[C@H]1Cn2nc(CO)cc2-c2cnc([C@@](C)(O)C(F)(F)F)n21 [Example 36]
- pIC50: 7.72

The next lines start with the values.

- pIC50: 8.07
Compound: C[C@H]1Cc2cc(C#N)ccc2-c2cnc([C@@](C)(O)C(F)(F)F)n21 [Example 94]

- pIC50: 7.38
Compound: C[C@H]1Cn2nc(OCC(C)(C)S(C)(=O)=O)cc2-c2cnc([C@@](C)(O)C(F)(F)F)n21 [Example 84]

- pIC50: 8.07
Compound: C[C@H]1Cn2c(nnc2C2(F)CC2)-c2cnc([C@@](C)(O)C(F)(F)F)n21 [Example 99]

Source: patent publication US20230025880A1, “FUSED TRICYCLIC COMPOUND AND MEDICINAL USE THEREOF” (JAPAN TOBACCO INC., priority 2020, published 2023)
